Measurements reported in PubChem BioAssay (NCI).
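Exposure lasted 48 hours, with cells grown in 96-well plates and compounds tested at five concentrations. Abbreviation: GI50, concentration required for 50% inhibition of growth. TGI denotes the concentration required for complete inhibition of growth.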

What was measured:
Experiment in all cases: NCI-60 cell line screen, 48 h
[1] = tested on: CCRF-CEM leukemia
[2] = tested on: COLO 205 colon
[3] = tested on: BT-549 breast
[4] = tested on: UO-31 renal
[5] = tested on: SK-MEL-5 melanoma
[6] = tested on: 786-0 renal
[7] = tested on: SF-295 CNS
[8] = tested on: K-562 leukemia
[9] = tested on: MALME-3M melanoma
[10] = tested on: MDA-MB-435

| Compound | GI50 [1] | TGI [1] | GI50 [2] | TGI [2] | GI50 [3] | TGI [3] | GI50 [4] | TGI [4] | GI50 [5] | TGI [5] | GI50 [6] | TGI [6] | GI50 [7] | TGI [7] | GI50 [8] | TGI [8] | GI50 [9] | TGI [9] | GI50 [10] | TGI [10] |
| --- | --- | --- | --- | --- | --- | --- | --- | --- | --- | --- | --- | --- | --- | --- | --- | --- | --- | --- | --- | --- |
| Cc1nc2cccc(NCc3ccc(C(=O)NO)cc3)c2c(=O)n1-c1ccccc1 | 2.09 µM | > 100 µM | 1.87 µM | 3.97 µM | 2.8 µM | 8.1 µM | 1.37 µM | 3.15 µM | 1.64 µM | 3.1 µM | 1.81 µM | 3.78 µM | 1.76 µM | 3.54 µM | 2.52 µM | > 100 µM | 1.48 µM | 3.26 µM | 1.63 µM | 3.28 µM |
| N=C(N)CCCCCCCCC(=N)N | 44.6 µM | > 100 µM | 7.86 µM | 20.9 µM | 27.2 µM | > 100 µM | 18.2 µM | > 100 µM | 38.2 µM | > 100 µM | > 100 µM | > 100 µM | 23.5 µM | 81.3 µM | 19.7 µM | > 100 µM | 39.9 µM | > 100 µM | > 100 µM | > 100 µM |
| Nc1ccccc1C#C/C=C\C#Cc1ccc(Cl)cc1Cl | 0.376 µM | 10.6 µM | 23.8 µM | > 100 µM | 12.4 µM | 28.7 µM | 14.2 µM | 40 µM | 6.63 µM | 21.2 µM | 13.5 µM | 27.4 µM | 5.17 µM | 20 µM | 4.84 µM | > 100 µM | 1.87 µM | 17.2 µM | 2.41 µM | 5.8 µM |
| O=C(C(Br)Br)C(Br)C(Br)c1ccccc1 (stereo unspecified) | 0.536 µM | 2.66 µM | 1.65 µM | 3.59 µM | 3.97 µM | 14.1 µM | 2.5 µM | 7.86 µM | 10.6 µM | 22.7 µM | 3.47 µM | 11 µM | – | – | 1.89 µM | 5.37 µM | 3.11 µM | 8.65 µM | 2.67 µM | 8.21 µM |
| CC1=Cc2cc3[n-]c(cc4nc(cc5[n-]c(cc1n2)cc5C)C(C)=C4CCC(=O)O)c(CCC(=O)O)c3C.[Pd+2] | 5.37 µM | 13.7 µM | 16.8 µM | 41.6 µM | 4.89 µM | > 100 µM | 9.73 µM | 21.5 µM | 7.73 µM | 19.6 µM | > 21.8 µM | > 49.6 µM | 17.5 µM | 36.3 µM | 11 µM | > 37 µM | 10.5 µM | 38.5 µM | 68.9 µM | > 100 µM |
| S=C(N/N=C/c1ccccn1)Nc1ccccn1 | 0.358 µM | 17.5 µM | 0.471 µM | > 100 µM | 1.99 µM | > 100 µM | 1.01 µM | > 100 µM | 0.874 µM | 11.3 µM | 2.58 µM | 36.4 µM | – | – | 1.84 µM | > 100 µM | 1.81 µM | > 100 µM | 3.86 µM | > 100 µM |
